Laboratory results taken from publication PMC7305236, “The atypical chemokine receptor ACKR3/CXCR7 is a broad-spectrum scavenger for opioid peptides” (Nature Communications, 2020).
Read-outs that look alike come from different tables or passages of the source. Starred links: 1 amine or outer side, 2 acyl side, 3 side chain; linkers in the order of their positions; H or OH if unused. Non-standard residues stand in square brackets, D forms with d. Residues, ends and D or L forms follow the SMILES beside them. X1 = N[C@@H](Cc1ccccc1)CN(CC(=O)[*:2])[*:1]

Experiments:
Parameters in all cases: dose or concentration left out as unconfirmed
[1] = target: ACKR3 (Homo sapiens, UniProt P25106); test: cell-based; settings: read-out: ACKR3 activity, ctrl+ = 100, Figure S2a
ACKR3, sequence (P25106 whole entry): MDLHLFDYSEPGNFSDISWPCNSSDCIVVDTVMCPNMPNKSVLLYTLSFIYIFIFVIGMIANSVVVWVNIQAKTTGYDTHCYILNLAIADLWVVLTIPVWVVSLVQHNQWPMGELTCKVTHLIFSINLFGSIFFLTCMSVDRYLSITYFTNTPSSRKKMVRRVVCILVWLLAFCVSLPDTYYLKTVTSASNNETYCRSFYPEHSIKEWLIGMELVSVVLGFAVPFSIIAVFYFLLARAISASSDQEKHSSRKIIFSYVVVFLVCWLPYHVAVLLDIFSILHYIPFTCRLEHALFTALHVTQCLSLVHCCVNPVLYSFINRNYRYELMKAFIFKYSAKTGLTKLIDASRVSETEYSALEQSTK

[2] = target: T1, CCR2 (Homo sapiens, UniProt P41597); test: Figure S2a opioid peptide screen on chemokine receptors; type: cell-based
T1 construct: expressed in transfected cells
T1 sequence (P41597 1-360 isoform P41597-2): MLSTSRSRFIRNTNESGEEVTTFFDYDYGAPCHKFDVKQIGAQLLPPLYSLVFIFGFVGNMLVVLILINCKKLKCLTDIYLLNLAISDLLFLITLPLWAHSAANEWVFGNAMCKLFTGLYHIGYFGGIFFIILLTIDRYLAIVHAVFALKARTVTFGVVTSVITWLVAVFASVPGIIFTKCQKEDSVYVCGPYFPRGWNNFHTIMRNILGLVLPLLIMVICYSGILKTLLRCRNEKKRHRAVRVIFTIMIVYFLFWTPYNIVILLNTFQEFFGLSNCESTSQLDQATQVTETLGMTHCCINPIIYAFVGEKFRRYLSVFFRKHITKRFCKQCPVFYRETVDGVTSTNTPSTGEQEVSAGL

[3] = target: T2, CXCR2 (Homo sapiens, UniProt P25025); test: as above; type: cell-based
T2 construct: expressed in transfected cells
T2 sequence (P25025 1-360): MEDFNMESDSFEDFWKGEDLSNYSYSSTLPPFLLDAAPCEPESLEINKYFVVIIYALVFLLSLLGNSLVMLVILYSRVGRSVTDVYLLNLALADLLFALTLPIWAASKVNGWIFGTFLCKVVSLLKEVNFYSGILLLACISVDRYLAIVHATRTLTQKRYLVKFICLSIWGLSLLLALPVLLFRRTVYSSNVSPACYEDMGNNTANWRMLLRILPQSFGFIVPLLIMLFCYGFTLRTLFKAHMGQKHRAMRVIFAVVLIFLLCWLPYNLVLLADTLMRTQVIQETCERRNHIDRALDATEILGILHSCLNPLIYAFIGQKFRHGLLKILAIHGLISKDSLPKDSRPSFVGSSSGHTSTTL

[4] = target: T3, CXCR6 (Homo sapiens, UniProt O00574); test: as above; type: cell-based
T3 construct: expressed in transfected cells
T3 sequence (O00574 whole entry): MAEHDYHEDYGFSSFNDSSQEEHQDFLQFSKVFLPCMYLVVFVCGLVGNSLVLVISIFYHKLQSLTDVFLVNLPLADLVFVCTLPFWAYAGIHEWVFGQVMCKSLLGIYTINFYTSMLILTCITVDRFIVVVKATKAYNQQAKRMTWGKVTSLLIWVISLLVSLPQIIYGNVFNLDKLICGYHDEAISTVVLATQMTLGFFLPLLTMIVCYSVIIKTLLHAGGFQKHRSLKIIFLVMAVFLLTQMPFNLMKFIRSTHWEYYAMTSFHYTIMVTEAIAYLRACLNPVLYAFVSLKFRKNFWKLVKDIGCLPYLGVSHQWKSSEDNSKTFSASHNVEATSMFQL

[5] = target: T4, CXCR3A (Homo sapiens, UniProt P49682); test: as above; type: cell-based
T4 construct: expressed in transfected cells; host or cells: U87 cells
T4 sequence (P49682 1-368): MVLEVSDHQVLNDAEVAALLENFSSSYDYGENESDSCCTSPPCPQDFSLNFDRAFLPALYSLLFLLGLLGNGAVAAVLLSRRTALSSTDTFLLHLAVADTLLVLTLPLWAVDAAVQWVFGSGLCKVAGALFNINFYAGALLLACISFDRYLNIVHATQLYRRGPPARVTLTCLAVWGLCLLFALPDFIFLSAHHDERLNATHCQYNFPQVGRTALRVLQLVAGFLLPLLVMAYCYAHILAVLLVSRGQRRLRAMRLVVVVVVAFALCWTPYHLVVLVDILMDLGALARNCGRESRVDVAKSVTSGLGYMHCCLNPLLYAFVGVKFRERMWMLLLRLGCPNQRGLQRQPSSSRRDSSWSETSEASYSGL

[6] = target: T5, CCR9 (Homo sapiens, UniProt P51686); test: as above; type: cell-based
T5 construct: expressed in transfected cells
T5 sequence (P51686 1-369): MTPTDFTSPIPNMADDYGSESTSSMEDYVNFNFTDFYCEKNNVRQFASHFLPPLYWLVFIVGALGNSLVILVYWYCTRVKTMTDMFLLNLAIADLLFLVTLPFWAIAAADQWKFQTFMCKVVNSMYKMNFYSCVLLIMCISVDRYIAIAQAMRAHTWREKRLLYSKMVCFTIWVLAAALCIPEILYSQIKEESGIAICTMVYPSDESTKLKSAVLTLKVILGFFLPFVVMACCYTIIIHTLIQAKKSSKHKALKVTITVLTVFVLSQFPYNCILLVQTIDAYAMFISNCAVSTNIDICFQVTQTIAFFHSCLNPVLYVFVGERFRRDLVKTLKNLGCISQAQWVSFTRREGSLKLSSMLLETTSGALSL

[7] = target: T6, CCR4 (Homo sapiens, UniProt P51679); test: as above; type: cell-based
T6 construct: expressed in transfected cells
T6 sequence (P51679 1-360): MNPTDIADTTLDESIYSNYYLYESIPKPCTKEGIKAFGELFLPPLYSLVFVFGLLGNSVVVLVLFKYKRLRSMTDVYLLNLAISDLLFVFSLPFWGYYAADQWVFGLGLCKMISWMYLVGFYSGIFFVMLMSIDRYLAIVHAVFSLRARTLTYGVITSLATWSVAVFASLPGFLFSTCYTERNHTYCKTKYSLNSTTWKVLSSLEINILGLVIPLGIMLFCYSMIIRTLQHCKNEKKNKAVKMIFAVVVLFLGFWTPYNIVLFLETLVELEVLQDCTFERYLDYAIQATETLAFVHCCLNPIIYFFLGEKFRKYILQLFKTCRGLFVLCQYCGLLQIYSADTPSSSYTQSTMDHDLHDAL

[8] = target: T7, CXCR4 (Homo sapiens, UniProt P61073); test: cell-based; settings: Figure S2a, read-out: CXCR4 activity, ctrl+ = 100
T7 construct: expressed in transfected cells; host or cells: U87, transient cotransfection of pNBe vectors
T7 sequence (P61073 whole entry): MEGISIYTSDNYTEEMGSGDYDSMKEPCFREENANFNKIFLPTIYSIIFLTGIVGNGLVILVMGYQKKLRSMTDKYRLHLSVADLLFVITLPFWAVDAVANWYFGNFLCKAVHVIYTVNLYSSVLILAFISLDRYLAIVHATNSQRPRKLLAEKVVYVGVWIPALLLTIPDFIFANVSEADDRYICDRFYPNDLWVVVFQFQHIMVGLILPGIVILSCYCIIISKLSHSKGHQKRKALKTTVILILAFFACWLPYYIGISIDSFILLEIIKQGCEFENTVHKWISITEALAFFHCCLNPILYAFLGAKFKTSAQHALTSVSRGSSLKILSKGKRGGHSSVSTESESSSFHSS

[9] = replicate 1, read-out: CCR2 activity, ctrl+ = 100
[10] = replicate 2, read-out: CCR2 activity, ctrl+ = 100
[11] = replicate 3, read-out: CCR2 activity, ctrl+ = 100
[12] = replicate 1, read-out: CXCR2 activity, ctrl+ = 100
[13] = replicate 2, read-out: CXCR2 activity, ctrl+ = 100
[14] = replicate 3, read-out: CXCR2 activity, ctrl+ = 100
[15] = replicate 1, read-out: CXCR6 activity, ctrl+ = 100
[16] = replicate 2, read-out: CXCR6 activity, ctrl+ = 100
[17] = replicate 3, read-out: CXCR6 activity, ctrl+ = 100
[18] = replicate 1, read-out: CXCR3A activity, ctrl+ = 100
[19] = replicate 2, read-out: CXCR3A activity, ctrl+ = 100
[20] = replicate 3, read-out: CXCR3A activity, ctrl+ = 100
[21] = replicate 1, read-out: CCR9 activity, ctrl+ = 100
[22] = replicate 2, read-out: CCR9 activity, ctrl+ = 100
[23] = replicate 3, read-out: CCR9 activity, ctrl+ = 100
[24] = replicate 1, read-out: CCR4 activity, ctrl+ = 100
[25] = replicate 2, read-out: CCR4 activity, ctrl+ = 100
[26] = replicate 3, read-out: CCR4 activity, ctrl+ = 100

| SMILES | activation ([1]; replicate 1) [%] | activation ([1]; replicate 2) [%] | activation ([1]; replicate 3) [%] | activation [2, 9] [%] | activation [2, 10] [%] | activation [2, 11] [%] | activation [3, 12] [%] | activation [3, 13] [%] | activation [3, 14] [%] | activation [4, 15] [%] | activation [4, 16] [%] | activation [4, 17] [%] | activation [5, 18] [%] | activation [5, 19] [%] | activation [6, 21] [%] | activation [6, 22] [%] | activation [7, 24] [%] | activation [7, 25] [%] | activation ([8]; replicate 1) [%] | activation ([8]; replicate 2) [%] | further results |
| --- | --- | --- | --- | --- | --- | --- | --- | --- | --- | --- | --- | --- | --- | --- | --- | --- | --- | --- | --- | --- | --- |
| CC(C)C[C@H](NC(=O)[C@H](Cc1ccccc1)NC(=O)CNC(=O)CNC(=O)[C@@H](N)Cc1ccc(O)cc1)C(=O)N[C@@H](CCCN=C(N)N)C(=O)N[C@@H](CCCN=C(N)N)C(=O)N[C@@H](CCC(N)=O)C(=O)N[C@@H](Cc1ccccc1)C(=O)N[C@@H](CCCCN)C(=O)N[C@H](C(=O)N[C@H](C(=O)N[C@H](C(=O)O)[C@@H](C)O)C(C)C)C(C)C [Dynorphin B] | 87 | 63.5 | 94.7 | 0.688 | -2.18 | 1.67 | 0.415 | -10 | 5.58 | -1.05 | -1.2 | 0.0809 | -2.8 | -4.87 | -1.23 | -1.3 | -1.26 | -2.57 | -12.2 | 7.15 | activation [5, 20]: -1.97%; activation [6, 23]: 15.7%; activation [7, 26]: 5.93%; activation ([8]; replicate 3): -6.95% |
| NC(=O)[C@H](Cc1ccccc1)NC(=O)[C@H](Cc1c[nH]c2ccccc12)NC(=O)[C@@H]1CCCN1C(=O)[C@@H](N)Cc1ccc(O)cc1 [Endomorphin-1] | 5.29 | 17 |  | 0.794 | -3.22 |  | 0.676 | -3.23 |  | -0.315 | 1.12 |  | 3.34 | -3.63 | -1.12 | 1.74 | 0.589 | -1.89 | 36.3 | 16.8 |  |
| C[C@H](NC(=O)CNC(=O)[C@@H](NC(=O)[C@H](Cc1ccccc1)NC(=O)CNC(=O)CNC[C@@H](N)Cc1ccccc1)[C@@H](C)O)C(=O)N[C@@H](CCCNC(=N)N)C(=O)N[C@@H](CCCCN)C(=O)N[C@@H](CO)C(=O)N[C@@H](C)C(=O)N[C@@H](CCCNC(=N)N)C(=O)N[C@@H](CCCCN)C(N)=O [FG Nociceptin 1-13] (H-[X1]GFTGARKSARK-NH2) | 61.5 | 58.4 | 66 | -0.148 | -0.651 | 0.99 | -5.21 | -6.16 | -0.318 | -0.041 | 0.0677 | 0.612 | 2.13 | -1.45 | -2.13 | 0.443 | -0.803 | -1.43 | 1.4 | -4.91 | activation [5, 20]: -3.37%; activation [6, 23]: 0.538%; activation [7, 26]: -2.08%; activation ([8]; replicate 3): 27.5% |
| C[C@H](NC(=O)CNC(=O)[C@@H](NC(=O)[C@H](Cc1ccccc1)NC(=O)CNC(=O)CNC(=O)[C@@H](N)Cc1ccccc1)[C@@H](C)O)C(=O)N[C@@H](CCCNC(=N)N)C(=O)N[C@@H](CCCCN)C(=O)N[C@@H](CO)C(=O)N[C@@H](C)C(=O)N[C@@H](CCCNC(=N)N)C(=O)N[C@@H](CCCCN)C(N)=O [Nociceptin 1-13] | 19.7 | 20.3 | 51.3 | 0.793 | -0.93 | 1.52 | -8.55 | -9.95 | -4.53 | -0.349 | -0.882 | 2.41 | -0.431 | -4.46 | -3.6 | -1.89 | -0.0637 | 0.246 | 20.2 | -3.76 | activation [5, 20]: -5.38%; activation [6, 23]: 2.5%; activation [7, 26]: 0.411%; activation ([8]; replicate 3): 28.2% |
| CC(C)C[C@H](NC(=O)[C@H](CCCCN)NC(=O)[C@H](CCCN=C(N)N)NC(=O)[C@H](C)NC(=O)[C@H](CO)NC(=O)[C@H](CCCCN)NC(=O)[C@H](CCCN=C(N)N)NC(=O)[C@H](C)NC(=O)CNC(=O)[C@@H](NC(=O)[C@H](Cc1ccccc1)NC(=O)CNC(=O)CNC(=O)[C@@H](N)Cc1ccccc1)[C@@H](C)O)C(=O)N[C@@H](C)C(=O)N[C@@H](CC(N)=O)C(=O)N[C@@H](CCC(N)=O)C(=O)O [Nociceptin] |  | 1.08 |  | -0.0919 | -3.09 |  | -2.08 | -14.7 |  | -0.607 | -0.718 |  | -2.21 | -5.51 | 0.361 | 3.44 | -2.47 | -0.825 | 3.24 | -19.8 |  |
